Assay [1] has as its target T1, human β-Secretase (Homo sapiens (Human), UniProt P56817). Description: Diluted TR-FRET assay. Format: biochemical. The following applies: 50 times less enzyme, 6.5 h reaction time; read-out: IC50 in TR-FRET assay (IC50 from the diluted FRET assay). The method, then: (§1) The cDNA for the soluble part of the human β-Secretase (AA 1-AA 460) was cloned using the ASP2-Fc10-1-IRES-GFP-neoK mammalian expression vector. The gene was fused to the Fc domain of IgG1 (affinity tag) and stably cloned into HEK 293 cells.
(§2) The enzyme (truncated form) was diluted to 6 μg/mL (stock 1.3 mg/mL) and the TruPoint BACE1 Substrate to 200 nM (stock 120 μM) in reaction buffer (NaAcetate, chaps, triton x-100, EDTA pH4.5). Enzyme and compound in dimethylsulphoxide (final DMSO concentration 5%) was mixed and pre-incubated for 10 minutes at RT. Substrate was then added and the reaction was incubated for 15 minutes at RT. The reaction was stopped with the addition of 0.35 vol Stop solution (NaAcetate, pH 9). The fluorescence of the product was measured on a Victor II plate reader with excitation wavelengths of 340-485 nm and emission wavelengths of 590-615 nm. […] The dimethylsulphoxide control, instead of test compound, defined the 100% activity level and 0% activity was defined by wells lacking enzyme (replaced with reaction buffer) or by a saturating dose of a known inhibitor, 2-amino-6-[3-(3-methoxyphenyl)phenyl]-3,6-dimethyl-5H-pyrimidin-4-one.
Compounds with a high affinity were further tested in a diluted TR-FRET assay, conditions as described above for the TR-FRET assay, but with 50 times less enzyme and a 6.5 h long reaction time at r.t. in the dark.
In general terms: TR-FRET usually uses a lanthanide donor and a delayed reading to cut background.

Assay [2] has as its system sAPPβ release, SH-SY5Y cells. Kind of assay: sAPPβ release assay. Format: cell-based. The settings on record: 17 h incubation. The method, then:
Thaw cells and seed at a conc. of around 10000 cells/well in DMEM/F-12 with Glutamax, 10% FCS and 1% non-essential amino acids to a 384-well tissue culture treated plate, […] cell susp/well. The cell plates were then incubated for 7-24 h at 37° C., 5% CO2. The cell medium was removed, followed by addition of 30 μL compound diluted in DMEM/F-12 with Glutamax, 10% FCS, 1% non-essential amino acids and 1% PeSt to a final conc. of 1% DMSO. The compounds were incubated with the cells for 17 h (overnight) at 37° C., 5% CO2. Meso Scale Discovery (MSD) plates were used for the detection of sAPPβ release. MSD sAPPβ plates were blocked in 1% BSA in Tris wash buffer (40 μL/well) for 1 h on shake at r.t. and washed 1 time in Tris wash buffer (40 μL/well). 20 μL of medium was transferred to the pre-blocked and washed MSD sAPPβ microplates, and the cell plates were further used in an ATP assay to measure cytotoxicity. The MSD plates were incubated with shaking at r.t. for 2 h and the media discarded. 10 μL detection antibody was added (1 nM) per well followed by incubation with shaking at r.t. for 2 h and then discarded. 40 μL Read Buffer was added per well and the plates were read in a SECTOR Imager.

The target in assay [3] is T1, human β-Secretase. Description: TR-FRET assay. Format: biochemical. Here is the method:
The β-secretase enzyme used in the TR-FRET is prepared as follows:
as §1, §2

T1 sequence (P56817 22-460): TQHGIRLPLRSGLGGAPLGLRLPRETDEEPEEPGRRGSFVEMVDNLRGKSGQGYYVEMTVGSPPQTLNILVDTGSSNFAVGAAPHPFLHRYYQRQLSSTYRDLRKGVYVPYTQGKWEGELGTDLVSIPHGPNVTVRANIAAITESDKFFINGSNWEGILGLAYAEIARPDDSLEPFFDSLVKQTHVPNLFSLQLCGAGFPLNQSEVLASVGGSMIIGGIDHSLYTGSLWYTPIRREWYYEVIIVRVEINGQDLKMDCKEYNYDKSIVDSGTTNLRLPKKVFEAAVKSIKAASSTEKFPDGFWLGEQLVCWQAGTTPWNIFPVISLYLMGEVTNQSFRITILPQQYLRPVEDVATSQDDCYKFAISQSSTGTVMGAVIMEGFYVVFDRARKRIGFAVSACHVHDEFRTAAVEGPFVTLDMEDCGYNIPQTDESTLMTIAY

For orientation: IC50 means the point on the concentration scale where inhibition reaches its midpoint. In the case of `CO[C@H]1CC[C@]2(CC1)Cc1cc(F)c(-c3cc(Cl)cc(C#N)c3)cc1[C@@]21N=C(C)C(N)=N1` (single isomer, unassigned; isomer 1) [6 Isomer 1], the IC50 on human β-Secretase [1] came to 2.4 nM.

For `CO[C@H]1CC[C@]2(CC1)Cc1cc(F)c(-c3cc(F)cc(C#N)c3)cc1[C@@]21N=C(C)C(N)=N1` (single isomer, unassigned; isomer 1) [9 Isomer 1], the IC50 in assay [2] amounted to 7.4 nM; at human β-Secretase [1], 13 nM.

As to `CO[C@H]1CC[C@]2(CC1)Cc1cc(F)c(-c3cc(Cl)cc(C#N)c3)cc1[C@]21N=C(C)C(N)=N1` (single isomer, unassigned; isomer 2) [6 Isomer 2], the IC50 against human β-Secretase [3] was > 4300 nM.

Turning to `CO[C@H]1CC[C@]2(CC1)Cc1cc(F)c(-c3cc(F)cc(C#N)c3)cc1[C@]21N=C(C)C(N)=N1` (single isomer, unassigned; isomer 2) [9 Isomer 2], the IC50 against human β-Secretase [3] is > 5000 nM.

Regarding `CO[C@H]1CC[C@]2(CC1)Cc1cc(C)c(Br)cc1C21N=C(C)C(N)=N1` (some centres unmarked) [Example 1, (1r,4r)-6′-Bromo-4-methoxy-5′,5″-dimethyl-3′H-dispiro[cyclohexane-1,2′-indene-1′,2″-imidazol]-4″-amine], the IC50 against human β-Secretase [3] came to 1660 nM.

Consider `CC#Cc1cncc(-c2cc3c(cc2C)C[C@]2(CC[C@@H](OC)CC2)C32N=C(C)C(N)=N2)c1` (some centres unmarked) [Example 2, (1r,4r)-4-Methoxy-5′,5″-dimethyl-6′-[5-(prop-1-yn-1-yl)pyridin-3-yl]-3′H-dispiro[cyclohexane-1,2′-indene-1′,2″-imidazol]-4″-amine], for which the IC50 in assay [2] (Homo sapiens) is 17 nM; on human β-Secretase [1] it was 15 nM.

For the compound `CO[C@H]1CC[C@]2(CC1)Cc1cc(C)c(-c3cc(Cl)cc(C#N)c3)cc1C21N=C(C)C(N)=N1` (some centres unmarked) [Example 3, 3-[(1r,4r)-4″-Amino-4-methoxy-5′,5″-dimethyl-3′H-dispiro[cyclohexane-1,2′-indene-1′,2″-imidazol]-6′-yl]-5-chlorobenzonitrile], the IC50 in assay [2] (Homo sapiens) is 12 nM; on human β-Secretase [1] it was 24 nM.

Take `COC1CCC2(CC1)Cc1cc(F)c(Br)cc1C21N=C(C)C(N)=N1` (centres unmarked) [Example 4, 6′-Bromo-5′-fluoro-4-methoxy-5″-methyl-3′H-dispiro[cyclohexane-1,2′-indene-1′,2″-imidazol]-4″-amine]: the IC50 against human β-Secretase [3] amounted to 516 nM.

`CO[C@H]1CC[C@]2(CC1)Cc1cc(F)c(-c3cc(Cl)cc(C#N)c3)cc1C21N=C(C)C(N)=N1` (some centres unmarked) [Example 5, 3-[(1s,4s)-4″-Amino-5′-fluoro-4-methoxy-5″-methyl-3′H-dispiro[cyclohexane-1,2′-indene-1′,2″-imidazol]-6′-yl]-5-chlorobenzonitrile] displayed a half-inhibitory concentration (IC50) against human β-Secretase [3] of 23 nM.

Turning to `CO[C@H]1CC[C@]2(CC1)Cc1cc(F)c(-c3cncc(Cl)c3)cc1C21N=C(C)C(N)=N1` (some centres unmarked) [Example 7, (1r,4r)-6′-(5-Chloropyridin-3-yl)-5′-fluoro-4-methoxy-5″-methyl-3′H-dispiro[cyclohexane-1,2′-indene-1′,2″-imidazol]-4″-amine], the figures for the IC50 (in assay [2] (Homo sapiens); at human β-Secretase [3]) were 3 nM and 36 nM, respectively.

For `CO[C@H]1CC[C@]2(CC1)Cc1cc(F)c(-c3cc(F)cc(C#N)c3)cc1C21N=C(C)C(N)=N1` (some centres unmarked) [Example 8, 3-[(1r,4r)-4″-Amino-5′-fluoro-4-methoxy-5″-methyl-3′H-dispiro[cyclohexane-1,2′-indene-1′,2″-imidazol]-6′-yl]-5-fluorobenzonitrile], the IC50 worked out at 4.8 nM in assay [2] (Homo sapiens) and 23 nM against human β-Secretase [3].

In turn, `CO[C@H]1CC[C@]2(CC1)Cc1cc(F)c(OCCCF)cc1C21N=C(C)C(N)=N1` (some centres unmarked) [Example 10, 5′-Fluoro-6′-(3-fluoropropoxy)-4-methoxy-5″-methyl-3′H-dispiro[cyclohexane-1,2′-indene-1′,2″-imidazol]-4″-amine] yielded an IC50 against human β-Secretase [3] of 39 nM.

The record behind these values is patent US9000183B2, “Cyclohexane-1,2′-indene-1′,2″-imidazol compounds and their use as BACE inhibitors” (AstraZeneca AB, priority 2012, dated 2015).
